Laboratory results reported in patent EP0240257A2, “Compounds and pharmaceutical preparations having calcium - regulatory activity” (University of Lancaster, priority 1986, dated 1987).
“Also recorded” adds a separate entry of the source.

What was measured:
[1] = system: rat vas deferens smooth muscle (partly depolarized); assay: K+-induced (20 mM K) contracture tension, dose-response comparison; conditions: for activity in enhancing K+-induced contracture tension: parallel trials of ABA and BAY K 8644, result in words
Protocol: Smooth muscle preparations were obtained from male Wistar strain albino rats. The animals were killed by a blow to the head and smooth muscle strips (about 2 mm x 10 mm) were dissected from the bladder. The vasa deferentia were divided into two portions and longitudinally bisected. Tests on cardiac muscle were carried out using isolated cannulated flounder heart. […] MgCl₂ : 1.2mM The Krebs solution was adjusted to pH 7.3 with HCl and was continuously aerated and maintained at 37°C.
(§1) To record tension the muscle preparations were mounted vertically in jacketed organ baths which were continuously aerated and whose contents could be rapidly changed. The preparations were attached to a set of Grass Instruments ST 0.3C force displacement transducers held in adjustable rackwork, and the racks were adjusted to put slight tension on the preparations. After mounting in the perfusion baths the preparations were allowed to equilibrate for 1 hour, the bath saline being changed every 15 min. The force displacement transducer outputs were connected to a four-channel Grass model 79 polygraph. The stimulation electrode terminals were attached to Grass SIU 5 isolation units connected to two Grass S48 stimulators driven in tandem. Stimulation train parameters varied in different preparations but a common regime consisted of a 200 msec train of pulses at 50 Hz, each pulse being 2-5 msec at 40-50 V. Trains were automatically repeated usually at 100 or 50 sec intervals.

[2] = Field stimulation response (more recent findings, tissue not stated); conditions: no tissue or concentration printed
flounder heart = assay: Contractile force of isolated cannulated heart
Protocol: (§2) Smooth muscle preparations were obtained from male Wistar strain albino rats. The animals were killed by a blow to the head and smooth muscle strips (about 2 mm x 10 mm) were dissected from the bladder. The vasa deferentia were divided into two portions and longitudinally bisected. Tests on cardiac muscle were carried out using isolated cannulated flounder heart. All mammalian preparations were maintained in Krebs solution containing NaCl : 120.7 mM; NaH₂PO₄ : 1.3 mM; KCl : 5.9 mM; NaHCO₃ : 15.5 mM and CaCl₂ : 2.5mM; glucose : 11.5 mM. MgCl₂ : 1.2mM The Krebs solution was adjusted to pH 7.3 with HCl and was continuously aerated and maintained at 37°C.
The flounder heart was maintained at 10°C in flounder saline containing NaCl : 116.7 mM, CaCl₂ : 1.72 mM, Na₂SO₄ : 18.6 mM, TES : 2.5 mM and KCl : 2.71 mM, glucose : 5.0 mM MgSO₄ : 0.67 mM, at pH 7.65.
as §1, with “intervals. The techniques have been described in detail by Huddart and Butler (1986) in Gen. Pharmac., 17, 695-703 (1986).” for “intervals.”
The contractile force in flounder heart was measured before and after addition of ABA to the perfusion solution.

[3] = system: rat vas deferens smooth muscle; assay: Field stimulation contractions of isolated smooth muscle (organ bath tension recording)
Protocol: as §2
as §1, with “intervals. The techniques have been described in detail by Huddart and Butler (1986) in Gen. Pharmac., 17, 695-703 (1986).” for “intervals.”
(§3) The smooth muscle preparations were threaded through two silver/silver chloride ring electrodes (4 mm inside diameter), mounted 10 mm apart on a perspex rod. The bottom ligature was passed through a fine hole in a nylon screw at the base of the rod. By turning the screw the muscle strip could be drawn exactly through the electrode rings. The electrode assemblies were then placed in the jacketed organ baths as described above and the upper muscle ligatures attached to the transducer to measure tension. Both the vas deferens and the bladder smooth muscles responded to the field stimulation with consistent repeatable contractions. It is believed that these contractions are calcium-dependent via the operation of slow calcium channels. The effect of ABA on these contractions was tested by adding a concentrated solution thereof to the perfusion solution to give an overall ABA concentration of 10⁻⁶M. In the two vas deferens studies the slow calcium channel blocker nifedipine was then added in the same manner to produce a concentration of 10⁻⁷M. […]

[4] = system: rat urinary bladder detrusor muscle strips; assay: as above
Protocol: as §2
as §1, with “intervals. The techniques have been described in detail by Huddart and Butler (1986) in Gen. Pharmac., 17, 695-703 (1986).” for “intervals.”
as §3

[5] = system: rat urinary bladder detrusor muscle strips; assay: High-K (60 mM K+) contracture response of K+-depolarized muscle
Protocol: as §2
as §1, with “intervals. The techniques have been described in detail by Huddart and Butler (1986) in Gen. Pharmac., 17, 695-703 (1986).” for “intervals.”
(A) Rat urinary bladder detrusor muscle strips were tested in a high-K saline prepared by substitution of sodium compounds in the Krebs' solution by equimolar amounts of potassium compounds to give a K+ concentration of 60 mM. At this level of depolarization it is believed that the fast calcium channels are voltage-inactivated. […]

[6] = system: microsomal calcium efflux; assay: Potassium-stimulated microsomal calcium efflux; type: biochemical
[7] = Rattus norvegicus, read-out: enhanced field stimulation responses

Row | Compound | activity in enhancing K+-induced contracture tension [1] | threshold / potency relative to ABA ([1]; rat vas deferens) | field stimulation response [2] | contractile force (flounder heart; ABA 10⁻⁶M in perfusion solution, 10°C) | cardiac arrhythmia (flounder heart; prolonged ABA exposure (15 minutes)) | activation at 1 µM [3, 7] [%] | activation at 1 µM [4, 7] [%] | tonic phase of the response ([5]; ABA 10⁻⁶ M in high-K saline, added just after the initial phasic response) | contracture tension ([5]; ABA 10⁻⁶M, K+-depolarized muscle, result in words) | activation at 1 µM ([5]; Rattus norvegicus, 0.25 h, ABA 10⁻⁶ M added 15 minutes before the high-K solution (K+ 60 mM), read-out: enhancement of contracture tension) [%] | EC (100% enhancement) ([1]; rat vas deferens, partly depolarized, read-out: threshold for 100% enhancement of K contracture tension) [µM] | potassium-stimulated microsomal calcium efflux [6] | inhibition of the ABA action on contractile force (flounder heart; nifedipine after ABA 10⁻⁶M) | inhibition of the ABA augmentation of the field stimulation response (and of the response itself) ([3]; nifedipine 10⁻⁷M added after ABA 10⁻⁶M, vas deferens) | inhibition of the ABA augmentation of the field stimulation response (and of the response itself) ([4]; nifedipine after ABA 10⁻⁶M, bladder)
1 | COC(=O)C1=C(C)NC(C)=C([N+](=O)[O-])C1c1ccccc1C(F)(F)F (stereo not shown) [BAY K 8644, methyl 1,4-dihydro-2,6-dimethyl-5-nitro-4-[2-(trifluoromethyl)-phenyl]-3-pyridinecarboxylate, reference compound] | identical activity | roughly one order of magnitude greater than ABA |  |  |  |  |  |  |  |  |  |  |  |  | 
2 | CC1=CC(=O)CC(C)(C)C1(O)/C=C/C(C)=C\C(=O)O (racemic) [ABA, (1ʹS,2Z,4E)-5-(1ʹ-hydroxy-2ʹ,6ʹ,6ʹ-trimethyl-4ʹ-oxocyclohex-2ʹ-enyl)-3-methyl-penta-2,4-dienoic acid] | identical activity |  | enhances | augment | pronounced cardiac arrhythmia | ~25 | ~25 | enhanced; also recorded: considerable enhancement | considerably augmented | 50 | ~0.005 | enhances |  |  | 
3 | COC(=O)C1=C(C)NC(C)=C(C(=O)OC)C1c1ccccc1[N+](=O)[O-] [nifedipine, reference compound] |  |  |  |  |  |  |  |  |  |  |  |  | inhibited | inhibited | inhibited
